Measurements as given in patent publication US20180371046A1, “Therapy for Lower Urinary Tract Dysfunctions” (University of Pittsburgh - Of the Commonwealth System of …, priority 2017, published 2018).
Entries after “also recorded” stand apart in the source; their conditions may differ.

Tests used:
[1] = system: C57Bl/6 mice with chronic radiation cystitis; test: Urine spot analysis of irradiated mice; type: in vivo, mouse
Experimental: FIG. 16. Urine spot analysis from irradiated mice with and without hRLX2 therapy. Mice were placed in metabolic cages with Whatman paper on the floor for 2 hours between 11 AM and 2 PM without access to food and water. Upon completion, filter papers were collected and photographed under UV light.
Thus, our assessment is that the therapeutic dose of hRLX2 is likely between 80 and 400 μg/kg/day.

CaV1.2 [2] = test: Immunohistochemistry of L-type Ca2+ channel subunit in irradiated mouse bladders; type: in vivo; details: relaxin treated, listed as relaxin
Excerpt: (§1) FIG. 5A-5D. Relaxin treatment improves detrusor contractility and reduces bladder fibrosis in mouse bladders with chronic stage radiation cystitis. FIG. 5A. Length-tension profiles from irradiated (9-weeks post exposure) mouse bladders with and without relaxin treatment. […] FIG. 5B. […] FIG. 5C. […] Expression of the L-type Ca^2+ channel subunit, CaV1.2, was examined by immunohistochemistry. […] FIG. 5D.
(§2) A mouse model was developed to mimic chronic radiation cystitis. As a surrogate to chronic radiation cystitis in the mouse, a laparotomy was performed where the bladder was briefly withdrawn for selective high dose (10 Gy) irradiation (FIG. 4(A)). Delivered to the pelvic region such a dose could be lethal (LD50≅8 Gy). […] Moreover, following spinal cord injury, rodents can develop detrusor-sphincter-dyssynergia (DSD) which also occurs in humans. […] This is the first application of relaxin to treat bladder dysfunction due to irradiation damage or any urinary tract disease. The data also are by far the most impressive reversal/treatment for radiation cystitis.

[3] = system: irradiated mouse bladder detrusor; test: Length-tension profiles and contractile responses of irradiated mouse bladders after relaxin treatment; type: in vivo; details: relaxin treated
Excerpt: as §1, §2

[4] = system: aged rat prostate / urethra; test: Histological sections of male rat urethras at the level of the prostate (aged rats, BPH); type: in vivo; details: hRLX2 treated vs control, preliminary studies
Excerpt: FIG. 21. Histological sections of male rat urethras—at the level of the prostate—from control and hRLX2 treated aged rats.
Benign Prostatic Hyperplasia is a non-malignant enlargement of the prostate and is a condition that frequently affects the elderly male population. BPH in humans can cause constriction of the urethra, outlet obstruction, inflammation, fibrosis and the development of LUTD (Bushman, W. A., et al.: The role of prostate inflammation and fibrosis in lower urinary tract symptoms. Am J Physiol Renal Physiol, 311: F817, 2016). […] However, the therapeutic effects of hRLX2 on BPH itself can still be evaluated in aged animal models. We propose that selective injection of hRLX2 (FIG. 20) to the lateral and ventral lobes (corresponding to the transitional zone of the human prostate) or systemic administration could be performed in aged rats or mice. Following treatment, the prostates could be evaluated histologically for morphological changes such as smooth muscle or extracellular matrix content, signs of inflammation (e.g., mast cell infiltration, edema) or epithelial damage, as that observed in preliminary studies (FIG. 21).

aged rat bladder [5] = test: Length-tension studies and agonist/EFS responses of bladder strips from aged and adult rats; type: in vivo
Experimental: Adult (9 months old) and aged (24 months old) Fisher 344/Brown Norway F1 (F-344) male rats were used in this study. Six out of twelve rats in each age group were treated with relaxin (400 μg/kg/day) or vehicle which were infused by osmotic mini-pumps (ALZET) for 14 days, after which bladders were excised and cut from outlet to dome along the midline ventral and dorsal aspects to form two strips.
One strip was placed in a recording chamber with oxygenated Krebs solution. The base was pinned to a fixed platform and the dome connected to a tension transducer mounted on a programmable stepper motor. Bladder strips were stretched longitudinally in 500 μm increments and baseline tension allowed to stabilize (passive tension). Three field stimulation (20 Hz, 3 sec train, 0.5 ms pulse width, 15V output) contractions were performed at each stretch to determine active force generation.
(§3) Aged (24 month) and adult (9 month) male and female F344 rats were administered recombinant human relaxin-2 (400 μg/kg/day) or saline for 14-days via subcutaneous osmotic pumps. At the end of the treatment period, bladders were isolated. Contractile function was assessed in bladder muscle strips using length-tension relationship and responses to agonists and electrical field stimulation. Bladder wall morphology was examined in histological sections stained for collagen and elastin.
(§4) Aged (24 month) and adult (9 month) male and female F344 rats (obtained through the aged rodent colony of the National Institute on Aging) were administered recombinant hRLX2 (400 μg/kg/day) or saline for 14-days via subcutaneous osmotic pumps. At the end of the treatment period, bladders were isolated and contractile function assessed in organ bath experiments using muscle strips to measure length-tension relationships and responses to agonists and electrical field stimulation. Bladder wall morphology was examined in 3 μm-thick histological sections stained for collagen and elastin. The expression of the L-type Ca^2+ channel α-subunit, Cav1.2, and relaxin receptor subtypes, RXFP1 and RXFP2, were determined by immunohistochemistry.

aged rat bladder [6] = test: Collagen staining and collagen:tissue ratio in aged and adult rat bladder sections; type: in vivo; details: for collagen:tissue ratio / bladder collagen content / deposition: 400 μg/kg/day for 14 days; for bladder collagen content / deposition: aged rats (male where stated)
Experimental: The other bladder strip was fixed in 10% PFA, embedded in paraffin, cut 5 μm thick, stained for collagen (Sigma HT251) and examined using bright field microscopy (total mag., 400×). The images were obtained at identical conditions and color analysis was performed using the ImageJ software threshold function to discriminate collagen and smooth muscle content.
as §3, §4

[7] = system: irradiated mouse bladder (chronic radiation cystitis); test: Decerebrated cystometry with simultaneous EUS electromyography in the selective bladder irradiation (chronic radiation cystitis) mouse model; type: in vivo; details: mice 9 weeks after 10 Gy selective bladder irradiation
Experimental: FIG. 4. Cystometric and EUS electromyographic assessment of irradiated mice with and without relaxin treatment. A. Selective bladder irradiation model. B-D. Bladder and sphincter functions were assessed using decerebrated cystometry with simultaneous electromyography (EMG; green traces) at 9 weeks following bladder irradiation.
as §2

irradiated mouse bladder = test: Histology and collagen quantification of irradiated mouse bladders; type: in vivo
Excerpt: as §1, §2

RXFP1 and RXFP2 receptor = details: Bathgate et al. 2013; cited from earlier work
Cav1.2 [8] = test: Immunohistochemistry of Cav1.2 in aged rat bladders; type: in vivo; details: aged (24 month) rat bladders, 400 μg/kg/day for 14 days
Excerpt: FIG. 7. Expression of L-type Ca^2+ channels is increased in aged rat bladders following relaxin treatment. Immunohistological staining of aged (>24 month old) rat bladder sections for the L-type Ca^2+ channel al C subunit, Cav1.2α. Expression of Cav1.2α was increased in relaxin-treated rat bladders compared to sham controls, similar to that observed in irradiated mouse bladders (FIG. 5C). […] This emphasizes the heterogeneity of aging related bladder changes.
as §4

[9] = Plasma hRLX2 level in rats; type: in vivo; details: rat, male; SC pump 77 μg/kg/d/14 days
[10] = clinical trials in acute heart failure and scleroderma; as high as 250 μg/kg/day; cited from earlier work
RXFP2 = RXFP2 (Homo sapiens, UniProt Q8WXD0); details: cited from earlier work
RXFP2, sequence (Q8WXD0 whole entry, species assumed): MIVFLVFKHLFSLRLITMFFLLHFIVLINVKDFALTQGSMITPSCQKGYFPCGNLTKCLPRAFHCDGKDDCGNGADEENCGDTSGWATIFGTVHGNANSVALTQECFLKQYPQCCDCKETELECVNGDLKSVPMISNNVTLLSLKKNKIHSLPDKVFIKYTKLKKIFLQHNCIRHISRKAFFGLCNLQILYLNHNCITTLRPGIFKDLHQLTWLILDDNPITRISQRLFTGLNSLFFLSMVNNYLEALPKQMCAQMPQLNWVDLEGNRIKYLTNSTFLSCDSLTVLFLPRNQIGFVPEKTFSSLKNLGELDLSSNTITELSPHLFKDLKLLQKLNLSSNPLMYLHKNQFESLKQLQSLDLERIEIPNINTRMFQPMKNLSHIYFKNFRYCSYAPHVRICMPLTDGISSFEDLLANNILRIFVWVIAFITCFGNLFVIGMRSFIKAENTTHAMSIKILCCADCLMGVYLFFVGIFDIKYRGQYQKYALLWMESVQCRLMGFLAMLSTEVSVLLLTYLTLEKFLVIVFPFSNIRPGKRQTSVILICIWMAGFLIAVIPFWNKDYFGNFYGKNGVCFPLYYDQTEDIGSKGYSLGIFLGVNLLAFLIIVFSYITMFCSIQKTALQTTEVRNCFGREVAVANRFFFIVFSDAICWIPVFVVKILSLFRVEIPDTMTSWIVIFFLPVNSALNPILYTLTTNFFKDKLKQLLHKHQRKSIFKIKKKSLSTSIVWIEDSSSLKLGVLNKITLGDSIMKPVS

[11] = adult (9 month) male rats, relaxin vs vehicle, 400 μg/kg/day for 14 days

For human relaxin-2 [hRLX2], the “urine spot analysis: number of spots and voided volumes” value ([1]; irradiated mice (10 Gy), 50 μg/kg/day sc osmotic pump, two weeks) was “small decrease in the number of spots and increase of voided volumes”, the “urine spot analysis: voiding pattern” value ([1]; irradiated mice (10 Gy), 400 μg/kg/day) was “voiding pattern identical to those of non-irradiated controls” and the “urine spot analysis: voided volumes and number of spots” value ([1]; irradiated mice, dose not given) was “increased voided volumes and decreased the number of spots, restoring normal bladder function”. For the same molecule, the “CaV1.2 expression in the detrusor” value (CaV1.2 [2]) was “returned by relaxin treatment; also recorded: an increase in the expression of Cav1.2α”, the “active tension / active force generation (length-tension profile)” value ([3]; 9 weeks post exposure) was “reversed by relaxin treatment to a profile similar to non-irradiated control mouse bladders; also recorded: increased active force generation” and the “passive tension (length-tension profile)” value ([3]; 9 weeks post exposure) was “reversed by relaxin treatment to a profile similar to non-irradiated control mouse bladders; also recorded: reversed by relaxin”. The “responses to purinergic agonist (ABMA), depolarization (KCl) or electrical field stimulation (EFS)” value [3] was “no significant change”, the “contractile response of the detrusor to oxotremorine-M (cholinergic response)” value ([3]; listed as Relaxin) was “increased the contractile response of the detrusor to muscarinic receptor agonist, oxotremorine-M” and the “contractile response of the detrusor to oxotremorine-M (cholinergic response)” value ([3]; listed as relaxin) was “an increase in the cholinergic response”. The “prostatic urethra histology (inflammation, columnar epithelium disruption, collagen infiltration, internal urethral sphincter damage)” value [4] was “prevented these adverse changes”, the “compliance and force generation” value (aged rat bladder [5]; 24 month-old Fischer F-344 rats, 400 μg/kg/day sc ALZET pumps, 2 weeks (Example 2)) was “substantial increases in both compliance and force generation” and the active tension generation (aged rat bladder [5]; [11]) was “increased active tension generation compared to controls”. For the same molecule, the passive tension profile (aged rat bladder [5]; [11]) was “no significant difference”, the passive tension profile (aged rat bladder [5]; aged (24 month) rats, male where stated, 400 μg/kg/day sc for 14 days) was “return of passive tension profiles comparable to adults” and the passive tension profile (aged rat bladder [5]; aged (24 month) rats, male where stated, 400 μg/kg/day sc for 14 days, listed as Relaxin) was “return of passive tension profiles comparable to adults”. For the same molecule, the passive tension profile (aged rat bladder [5]; aged (24 month) rats, male where stated, 400 μg/kg/day sc for 14 days, listed as relaxin) was “passive tension began increasing at a smaller degree of stretch compared to relaxin treated animals; also recorded: decreased the passive tension profile to that of adult animals”, the “responses to contractile agonists (ABMA and oxotremorine-M) or depolarization (KCl and EFS)” value (aged rat bladder [5]; aged and adult rat bladders, relaxin vs sham) was “no significant change” and the tissue compliance (aged rat bladder [5]; aged female rats, 400 μg/kg/day for 14 days) was “nor was it significantly altered”. For the same molecule, the active tension generation (aged rat bladder [5]; aged rats, relaxin vs vehicle/sham, 400 μg/kg/day for 14 days) was “equivocal; also recorded: no significant changes”, the “collagen:tissue ratio” value (aged rat bladder [6]; 9 month adult male rats, no significant difference to vehicle) was 0.33±0.09 and the “size of each bladder layer and collagen distribution” value (aged rat bladder [6]; 9 month old rats, sham vs relaxin treated) was “not significantly different”. For the same molecule, the “collagen:tissue ratio” value (aged rat bladder [6]; 24 month aged male rats, p<0.05) was 0.36±0.08, the “bladder collagen content / deposition” value (aged rat bladder [6]) was “decreased by hRLX2 treatment” and the “bladder collagen content / deposition” value (aged rat bladder [6]; listed as relaxin) was “decreased following relaxin treatment; also recorded: significant decrease in collagen content; also recorded: decreases in collagen content”. For the same molecule, the “detrusor layer thickness and collagen infiltration” value (aged rat bladder [6]; aged rats, relaxin treated vs shams) was “increased detrusor layer thickness and less collagen infiltration compared to shams”, the “EUS electromyogram: guarding reflex and bursting” value ([7]; relaxin 400 μg/kg/day sc for 2 weeks from week 7) was “recovered with relaxin treatment; also recorded: return of a normal guarding reflex and bursting” and the “cystometry: voiding function and bladder compliance” value ([7]; relaxin 400 μg/kg/day sc mini-pump for 2 weeks from week 7) was “abolished overflow incontinence with a return of voiding function and improved bladder compliance”. For the same molecule, the “bladder wall histology (urothelium, lamina propria, detrusor layer)” value (irradiated mouse bladder; relaxin treated) was “intact urothelium, normal lamina propria and increased thickness of the detrusor layer”, the collagen content (irradiated mouse bladder; relaxin vs sham treated) was “significant decrease in collagen content; also recorded: decreased collagen content” and the “affinity, RXFP1 versus RXFP2” value (RXFP1 and RXFP2 receptor) was “greater for the RXFP1 than the RXFP2 receptor”. The “Cav1.2 expression in the detrusor layer” value (Cav1.2 [8]) was “increased in aged rat bladders following hRLX2 treatment”, the “Cav1.2 expression in the detrusor layer” value (Cav1.2 [8]; listed as Relaxin) was “increased expression of L-type Ca^2+ channels” and the “Cav1.2 expression in the detrusor layer” value (Cav1.2 [8]; listed as relaxin) was “increased; also recorded: increases in smooth muscle expression of Cav1.2α”. The “Plasma level, exogenous” value [9] was 5,042 ♂ pg/ml and the “safety for use in humans” value [10] was “validated its safety for use in humans”.

B1: insulin-like peptide-3 (protein, listed as Homo sapiens)
chain: MDPRLPAWALVLLGPALVFALGPAPTPEMREKLCGHHFVRALVRVCGGPRWSTEARRPATGGDQRESHSVSQAGLKLLSSSNPPTLTFQSVGISDVSCYSGWRDDICSMGWWPTVISRWDLACSPCPRPLTITATTVQLPPTLHATAASVAVPNKTC
For B1, the “affinity for RXFP2” value (RXFP2) is given as “highest affinity for RXFP2”.
